Measurements taken from paper PMC10821025, “Bioprospection of Tenellins Produced by the Entomopathogenic Fungus Beauveria neobassiana” (Journal of Fungi, 2024).
Converted amounts (≈) assume the structure as drawn. Like-named read-outs stand apart in the source and are kept apart here. One block for each compound: values may come before it.

Columns and labels:
[1] = test system: Acinetobacter baumanii [DSM 30008]; experiment: Serial dilution assay (MIC); format: cell-based; conditions: Acinetobacter baumannii, DSM30008
Method: (§1) All isolated compounds were assessed for their antimicrobial activity using a serial dilution assay over a concentration range from 67 to 0.5 µg/mL following the previously described protocols. In brief, the antimicrobial activity of all isolated metabolites was assessed by determining their minimum inhibitory concentration (MIC) against a range of different pathogens, including five fungal species: Candida albicans [DSM 1665], Mucor hiemalis [DSM 2656], Schizosaccharomyces pombe [DSM 70572], Rhodotorula glutinis [DSM 10134], and Wickerhamomyces anomalus [DSM 6766], as well as various Gram-positive: Staphylococcus aureus [DSM 346], Bacillus subtilis [DSM 10], Mycolicibacterium smegmatis [ATCC 700084], and Gram-negative bacteria: Acinetobacter baumanii [DSM 30008], Escherichia coli [DSM 1116], Chromobacterium violaceum [DSM 30191], and Pseudomonas aeruginosa [PA14]. In our experiments, gentamicin served as the positive control against most bacteria, while nystatin acted as the positive control against all fungi. For specific microorganisms, namely A. baumannii, B. subtilis, and M. smegmatis, ciprofloxacin, oxytetracycline, and kanamycin were used as positive controls, respectively.

[2] = test system: human endocervical adenocarcinoma (KB-3.1); experiment: Cytotoxicity assay, KB3.1; format: cell-based; conditions: 5 days of incubation
Method: (§2) The cytotoxicity of isolated compounds was determined as previously described over a concentration range between […] against two mammalian cell lines: mouse fibroblasts (L-929) and human endocervical adenocarcinoma (KB-3.1). […] Following 5 days of incubation, we determined the minimum concentration of the tested compounds required to achieve 50% growth inhibition, expressed as IC50 values.

[3] = test system: Mucor hiemalis [DSM 2656]; experiment: Serial dilution assay (MIC); format: cell-based
Method: as §1

[4] = test system: Pseudomonas aeruginosa [PA14]; experiment: Serial dilution assay (MIC); format: cell-based
Method: as §1

[5] = test system: Staphylococcus aureus [DSM 346]; experiment: Serial dilution assay (MIC); format: cell-based
Method: as §1

[6] = test system: Escherichia coli [DSM 1116]; experiment: Serial dilution assay (MIC); format: cell-based
Method: as §1

[7] = test system: Mycolicibacterium smegmatis [ATCC 700084]; experiment: Serial dilution assay (MIC); format: cell-based; conditions: for MIC: Mycolicibacterium smegmatis, ATCC700084
Method: as §1

[8] = test system: Candida albicans [DSM 1665]; experiment: Serial dilution assay (MIC); format: cell-based
Method: as §1

[9] = test system: Bacillus subtilis [DSM 10]; experiment: Serial dilution assay (MIC); format: cell-based
Method: as §1

[10] = test system: mouse fibroblasts (L-929); experiment: Cytotoxicity assay, L929; format: cell-based; conditions: L929 (fibroblast), 5 days of incubation
Method: as §2

[11] = test system: S. aureus (DSM 1104) biofilm formation; experiment: Biofilm inhibition assay (Crystal Violet staining); format: cell-based, Staphylococcus aureus; conditions: for concentration below which biofilm inhibitory activity is lost: S. aureus biofilm, tested 125–7.8 µg/mL; for Biofilm inhibition (% ± SD): S. aureus (DSM 1104)
Method: The compounds were evaluated for their ability to inhibit S. aureus (DSM 1104) biofilm formation, following the established procedure. Briefly, serially diluted compounds (125–7.8 µg/mL) were co-incubated with S. aureus in 96-well plates in CASO medium supplemented with 4% of glucose (see Supplementary Materials). Biofilm inhibition was assessed by using Crystal Violet staining after […], with microporenic acid A serving as a positive control and methanol as solvent control.
Biofilm inhibition assays were condu cted acco rding to th e methodolo g y previousl y described (Soliga et al., 2021), targeting the inhibition of biofilm formation in Staphylococcus aureus […]
S. aureus were cultured i n LB and CASO medium at 37 °C for 18 h, respect ivel y, in a shaker at 120 rpm after being thawed from a -20 °C stock solution. The culture's optical densit y at 600 nm (OD600) was measured and adjusted to a 0.1 McFarland standard in M63 minimal medium supplemented with necessar y nutrients and CASO medi um with 4% glucose for S. aureus, respectively. Microtiter plates were loaded with 150 µL of the bacterial suspension containing s eriall y diluted test compounds (7.8 -125 µg/m L) and incubated for 24 h at 37 °C. The evaluation of biofilm inhibition was performed by staining the biofilm with 0.1% cr ystal violet (CV). After staining, the plates were washed, and the biofilm dissolved in 95% ethanol. The absorbance of the dissolved biofilm was measured at 530 nm using a plat e reader. Negative control involved methanol (2.5%) while microporenic acid A at a concentration range of 7.8 to 125 µg/mL were used as the positive control for S. aureus (Chepkirui et al., 2018). All experiments were performed three times, and the standard deviation (SD) was maintained at or below 15% for S. aureus .
Differences between sam ples and the control grou p were determined b y a t wo-tailed Student’s t-test. Statistical significan ce was defined as p < 0.01. Anal ysis was carri ed out using GraphPad Prism 9® (GraphPad Software, San Diego, CA, USA). […]

[12] = test system: Chromobacterium violaceum [DSM 30191]; experiment: Serial dilution assay (MIC); format: cell-based
Method: as §1

[13] = test system: breast cancer (MCF-7) cell line; experiment: Cytotoxicity assay, MCF-7; format: cell-based; conditions: Homo sapiens, MCF7, 120 h
[14] = test system: lung cancer (A-549) cell line; experiment: Cytotoxicity assay, A549; format: cell-based; conditions: Homo sapiens
[15] = test system: Wickerhamomyces anomalus [DSM 6766]; experiment: Serial dilution assay (MIC); format: cell-based
Method: as §1

[16] = test system: Rhodotorula glutinis [DSM 10134]; experiment: Serial dilution assay (MIC); format: cell-based
Method: as §1

[17] = test system: Schizosaccharomyces pombe [DSM 70572]; experiment: Serial dilution assay (MIC); format: cell-based
Method: as §1

[18] = Homo sapiens, KB 3-1, 120 h, KB3.1 (endocervical adenocarcinoma)
[19] = KB3.1 (endocervical adenocarcinoma)
[20] = Staphylococcus aureus, DSM1104, read-out: Biofilm inhibition (% ± SD), S. aureus (DSM 1104), 62.5 µg/ml
[21] = Staphylococcus aureus, DSM1104, read-out: Biofilm inhibition (% ± SD), S. aureus (DSM 1104), 125 µg/ml

Structure (SMILES): O=C(O)c1cn(C2CC2)c2cc(N3CCNCC3)c(F)cc2c1=O [Ciprofloxacin, reference compound]
- MIC [1]: 0.52 µg/mL (≈ 1.57 µM)

Structure (SMILES): CCC(C)/C=C(C)/C=C/C(=O)c1c(O)c(-c2ccc(O)cc2)c[nH]c1=O (stereo not drawn) [Compound 3, Pretenellin B]
- IC50 [2, 18]: 20.2 µM
- IC50 (µM) [2, 19]: weak or no activity
- MIC ([3]; DSM2656): > 67 µg/mL
- MIC [4]: > 67 µg/mL
- MIC ([12]; DSM30191): > 67 µg/mL
- MIC ([5]; DSM346): 66.6 µg/mL (≈ 188 µM)
- MIC ([6]; DSM1116): > 67 µg/mL
- MIC [7]: > 67 µg/mL
- MIC ([8]; DSM1665): > 67 µg/mL
- MIC ([9]; DSM10): 66.6 µg/mL (≈ 188 µM)
- IC50 (µM) [10]: weak or no activity
- IC50 ([10]; Mus musculus, L929, 120 h): 48.2 µM
- inhibitory activity on S. aureus biofilm formation (in words) ([11]; 125–7.8 µg/mL): promising activities in a dose-dependent manner
- Biofilm inhibition (% ± SD) ([11]; 7.8 µg/ml, listed as pretenellin B (3)): ca. 30%
- inhibition at 7.8 µg/mL ([11]; Staphylococcus aureus, DSM1104, read-out: Biofilm inhibition (% ± SD), S. aureus (DSM 1104), 7.8 µg/ml): 37 ± 7%
- inhibition at 15.62 µg/mL ([11]; Staphylococcus aureus, DSM1104, read-out: Biofilm inhibition (% ± SD), S. aureus (DSM 1104), 15.62 µg/ml): 52 ± 6%
- inhibition at 31.25 µg/mL ([11]; Staphylococcus aureus, DSM1104, read-out: Biofilm inhibition (% ± SD), S. aureus (DSM 1104), 31.25 µg/ml): 79 ± 8%
- inhibition at 62.5 µg/mL [11, 20]: 83 ± 6%
- inhibition at 125 µg/mL [11, 21]: 83 ± 6%

Structure (SMILES): CCC(/C=C(C)/C=C/C(=O)c1c(O)c(-c2ccc(O)cc2)c[nH]c1=O)CO (stereo not drawn) [Compound 6, Pyridovericin]
- IC50 [2, 18]: 4.9 to 6.8 µM
- IC50 [2, 19]: 4.9 µM
- MIC ([3]; DSM2656): > 67 µg/mL
- MIC [4]: > 67 µg/mL
- MIC ([5]; DSM346): 66.6 µg/mL (≈ 180 µM)
- MIC ([6]; DSM1116): > 67 µg/mL
- MIC [7]: > 67 µg/mL
- MIC ([8]; DSM1665): > 67 µg/mL
- MIC ([9]; DSM10): 66.6 µg/mL (≈ 180 µM)
- IC50 [10]: 5.7 µM
- IC50 ([10]; Mus musculus, L929, 120 h): 4.9 to 6.8 µM
- concentration below which biofilm inhibitory activity is lost [11]: 62.5 µg/mL
- inhibition at 62.5 µg/mL [11, 20]: 48 ± 5%
- inhibition at 125 µg/mL [11, 21]: 64 ± 14%
- IC50 ([13]; MCF-7 (breast), 5 days of incubation, read-out: IC50): 7300 nM
- IC50 ([14]; 120 h, A549 (lung), 5 days of incubation, read-out: IC50): 24100 nM

Structure (SMILES): C/C(=C\c1csc(C)n1)[C@@H]1C[C@@H]2O[C@]2(C)CCC[C@H](C)[C@H](O)[C@@H](C)C(=O)C(C)(C)[C@@H](O)CC(=O)O1 [Epothilone B, reference compound]
- IC50 ([13]; read-out: IC50, Positive Control Epothilone B (nM)): 0.07 nM
- IC50 ([14]; A549, 120 h, read-out: IC50, Positive Control Epothilone B (nM)): 0.05 nM

Structure (SMILES): CC(C)=CCC/C(C)=C/CC/C(C)=C/CC/C(C)=C/CO[C@@H](C(=O)O)[C@H](CC(=O)O)C(=O)O [Microporenic acid A, reference compound]
- Biofilm inhibition (% ± SD) ([11]; 7.8 µg/ml): 41 ± 9%
- Biofilm inhibition (% ± SD) ([11]; 15.62 µg/ml): 70 ± 13%
- Biofilm inhibition (% ± SD) ([11]; 31.25 µg/ml): 85 ± 1%
- Biofilm inhibition (% ± SD) ([11]; 62.5 µg/ml): 84 ± 1%
- Biofilm inhibition (% ± SD) ([11]; 125 µg/ml): 86 ± 0%

Structure (SMILES): C[C@@H]1[C@H](O)[C@@H](C)/C=C/C=C/CC/C=C/C=C/C=C/C=C/C(O[C@H]2O[C@H](C)[C@@H](O)[C@H](N)[C@@H]2O)CC2O[C@](O)(CC(O)C(O)CCC(O)CC(O)CC(O)CC(=O)O[C@H]1C)CC(O)C2C(=O)O (stereo partly drawn) [Nystatin, reference compound]
- MIC (µg/mL) [3]: 8.30 ^N µg/mL
- MIC (µg/mL) [15]: 16.6 ^N µg/mL
- MIC (µg/mL) [16]: 4.20 ^N µg/mL
- MIC (µg/mL) [8]: 8.3 ^N µg/mL
- MIC (µg/mL) [17]: 4.20 ^N µg/mL

Second part, led by results:

- MIC ([3]; DSM2656, read-out: MIC): > 67 µg/mL
- MIC ([4]; read-out: MIC): > 67 µg/mL
- MIC ([5]; DSM346, read-out: MIC): > 67 µg/mL
- MIC ([6]; DSM1116, read-out: MIC): > 67 µg/mL
- MIC ([7]; Mycobacterium smegmatis, read-out: MIC): > 67 µg/mL
- MIC ([8]; DSM1665, read-out: MIC): > 67 µg/mL
- MIC ([9]; DSM10, read-out: MIC): > 67 µg/mL
Structure (SMILES): O=C(O)c1c(O)c(-c2ccc(O)cc2)cn(O)c1=O [Compound 1, Pretenellin C]
- IC50 ([2]; Homo sapiens, KB 3-1, 120 h, KB3.1 (ovary)): > 37 µg/mL
- IC50 (µM) ([2]; KB3.1 (endocervical adenocarcinoma), listed as pretenellin C (1)): weak or no activity
- IC50 (µM) ([10]; listed as pretenellin C (1)): weak or no activity
- IC50 ([10]; Mus musculus, L929, 120 h): > 37 µg/mL
- concentration below which biofilm inhibitory activity is lost [11]: 31.3 µg/mL
- inhibition at 31.25 µg/mL ([11]; Staphylococcus aureus, DSM1104, S. aureus (DSM 1104), 31.25 µg/ml, read-out: Biofilm inhibition (% ± SD)): 46 ± 9%
- inhibition at 62.5 µg/mL ([11]; Staphylococcus aureus, DSM1104, S. aureus (DSM 1104), 62.5 µg/ml, read-out: Biofilm inhibition (% ± SD)): 63 ± 16%
- inhibition at 125 µg/mL ([11]; Staphylococcus aureus, DSM1104, S. aureus (DSM 1104), 125 µg/ml, read-out: Biofilm inhibition (% ± SD)): 74 ± 5%

- MIC ([4]; read-out: MIC): 0.21 µg/mL (≈ 0.44 µM)
- MIC ([12]; DSM30191, read-out: MIC): 1.7 µg/mL (≈ 3.56 µM)
- MIC ([5]; DSM346, read-out: MIC): 0.21 µg/mL (≈ 0.44 µM)
- MIC ([6]; DSM1116, read-out: MIC): 0.42 µg/mL (≈ 0.879 µM)
Structure (SMILES): CNC(C)C1CCC(N)C(OC2C(N)CC(N)C(OC3OCC(C)(O)C(NC)C3O)C2O)O1 (stereo not drawn) [Gentamycin, reference compound]

- MIC (µg/mL) ([7]; Mycobacterium smegmatis): 1.70 ^K µg/mL
Structure (SMILES): NC[C@H]1O[C@H](O[C@H]2[C@H](O)[C@@H](O[C@H]3O[C@H](CO)[C@@H](O)[C@H](N)[C@H]3O)[C@H](N)C[C@@H]2N)[C@H](O)[C@@H](O)[C@@H]1O [Kanymycin, reference compound]

- MIC ([9]; DSM10, read-out: MIC): 16.6 µg/mL (≈ 36.1 µM)
Structure (SMILES): CN(C)[C@@H]1C(O)=C(C(N)=O)C(=O)[C@@]2(O)C(O)=C3C(=O)c4c(O)cccc4[C@@](C)(O)[C@H]3[C@H](O)[C@@H]12 [Oxytetracycline, reference compound]
